Earlier results in patent publication US20080293709A1, “Novel 2-Amino-Heterocycles Useful in the Treatment of Abeta-Related Pathologies” (AstraZeneca AB, priority 2005, published 2008).
Non-standard residues stand in square brackets, D forms with d. Residues, ends and D or L forms follow the SMILES beside them. *: point of attachment. Sta = CC(C)C[C@H](N)[C@@H](O)CC(=O)O; Isovaleryl = CC(C)CC(=O)*

Target: BACE (Homo sapiens, UniProt P56817)
Sequence (P56817 46-501): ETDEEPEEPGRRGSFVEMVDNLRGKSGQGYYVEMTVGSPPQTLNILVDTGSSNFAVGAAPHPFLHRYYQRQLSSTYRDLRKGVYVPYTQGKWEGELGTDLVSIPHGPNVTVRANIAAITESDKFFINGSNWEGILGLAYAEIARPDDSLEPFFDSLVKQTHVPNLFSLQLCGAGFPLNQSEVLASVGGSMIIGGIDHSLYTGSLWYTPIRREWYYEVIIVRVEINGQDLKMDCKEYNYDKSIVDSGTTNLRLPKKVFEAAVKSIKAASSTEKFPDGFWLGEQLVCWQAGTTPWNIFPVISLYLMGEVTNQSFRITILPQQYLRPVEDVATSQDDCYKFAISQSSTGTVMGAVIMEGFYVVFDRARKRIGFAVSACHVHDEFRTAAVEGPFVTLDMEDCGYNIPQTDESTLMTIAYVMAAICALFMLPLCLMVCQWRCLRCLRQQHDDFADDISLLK

inhibition of BACE: inhibited weakly
Compound: CC(C)CC(=O)N[C@H](C(=O)N[C@H](C(=O)N[C@@H](CC(C)C)[C@@H](O)CC(=O)N[C@@H](C)C(=O)N[C@@H](CC(C)C)[C@@H](O)CC(=O)O)C(C)C)C(C)C [pepstatin] (Isovaleryl-VV[Sta]A[Sta]-OH)
